For data set [1] the following is noted: background statement; cited from earlier work.
In data set [2] the test system is Plutella xylistella larvae. As to the kind of experiment: Insecticidal test, leaf discs of turnip plants. The settings on record: 100 g/hl; 48 hours; 26° C; cyhexatin in the form of a wettable powder. It is filed as in vivo. As to the method:
Discs of leaf from turnip plants are placed in gelose in Petri dishes. In each dish, 10 Plutella xylistella larvae are placed on each disc and the dish is covered with a ventilated lid. The product to be tested is dissolved in a water/acetone 50/50 mixture and the discs are treated by spraying with this solution by using a Potter tower at a dose equivalent to 675 liters/ha. The discs are kept at 26° C. After 48 hours after the treatment, the live and dead larvae are counted and the mortality percentage is calculated.

A short description of data set [3]: Solubility in organic solvents. In kind it is physicochemical. Particulars: cyclohexanone (546 g), 316 g of 94% pure substance, 50° C., with stirring. As to the method:
A reactor is charged, with cyclohexanone (546 g) and 94% pure tricyclohexyl-tin hydroxide (316 g) at 50° C., with stirring. […] Benzoic acid (95 g) is then added and the temperature is kept at 50° C.

On to `[OH][Sn]([CH]1CCCCC1)([CH]1CCCCC1)[CH]1CCCCC1` [cyhexatin, Tricyclohexyl-tin hydroxide], for which the “solubility in most of the usual solvents in agrochemistry” value in data set [1] is “insolubility”. In data set [2], this compound registered a mortality percentage of under 10%. The dissolution in cyclohexanone entry in data set [3] is on record as “does not dissolve”.
Consider tricyclohexyl-tin benzoate, for which the mortality percentage result in data set [2] was “at least 95%”.

The values are drawn from patent US4602945A, “Acaricidal ester of tricyclohexyl-tin hydroxide” (Rhone-Poulenc Agrochimie, priority 1983, dated 1986).
